Experimental data: patent publication US10517920B2, “Antibacterial peptide and method of treatment using the antibacterial peptide” (United Arab Emirates University, priority 2011, dated 2019)
Where no end group is shown, it is not given here.

Tested on: Gram-positive and Gram-negative bacteria
Test: In vitro disc diffusion of identified amino acid sequences
Type: cell-based
Description: Each amino acid sequence identified in each of samples 1, sample 2 and sample 3, were checked for antibacterial activity using the invitro disc diffusion method of Murray P R et al; 1995 (Murray P R, Baron E J, Pfaller M A, Tenover F C, Yolke R H. (1995). Manual of Clinical Microbiology, ASM, Washington, D.C. 6th edition.)
The amino acid sequences were also compared to an Ampicillin standard of 10 μg/mL

Sequence	Antibacterial activity of amino acid sequences	Antibacterial activity compared with the standard drug ampicillin
KRGRLIWRVWRGIW [SEQ ID NO: 4, antibacterial peptide from the <10 kDa fraction of date pits degraded by solid state degradation]	maximum anti-bacterial activity	comparable to the standard drug ampicillin
RQWISRWTWQR [SEQ ID NO:6, antibacterial peptide from the <10 kDa fraction of date pits degraded by solid state degradation]	maximum anti-bacterial activity	comparable to the standard drug ampicillin
